Measurements taken from patent US20160340732A1, “COMPOSITIONS AND METHODS FOR DIAGNOSING AND TREATING NUCLEOTIDE REPEAT DISORDERS” (University of Virginia Patent Foundation, priority 2015, published 2016).

Key:
miR-762 = miR-762 levels in cells exposed to HDAC inhibitors; type: cell-based; conditions: mouse C2C12 cells, TSA 50 nM vs DMSO, 48 hours (FIG. 7)
Procedure: Epigenetic drugs increasing expression of miR-15 family members levels or miR762 are anticipated to have therapeutic potential. Importantly, these drugs are generally safe, and could influence NRDs even with small changes in miR levels. No regulators of miR-762 have been published, so whether candidate drugs might alter miR-762 levels in vitro were assessed. Cells were exposed to vehicle, trichostatin A (TSA, an HDAC inhibitor and antifungal agent), and valproate (an epilepsy drug, mood stabilizer, and weaker HDAC inhibitor). TSA increased miR-762 levels 65-fold (FIG. 7).

NETO1 mRNA = NETO1 mRNA levels in astrocytes transfected with miR-762 mimic, inhibitor or scrambled miR; type: cell-based; conditions: non-diseased astrocytes transfected with 400 nM, vs scrambled miR (FIG. 15)
Description: De novo introduction of the expanded repeat into naïve wild-type cells to induce NETO1 expression will be evaluated. […] NETO1 is not a predicted target of miR-762 by traditional in silico analysis (which relies on 3′ UTR analysis). However, a (C4G2)3 site 149 base pairs upstream of the NETO1 5′ UTR was identified that appeared significant both for its perfect replication of the C9 antisense expansion and its predicted tight pairing to miR-762 (RegRNA database: http://regrna.mbc.nctu.edu.tw/html/prediction.html). miR binding and regulation of transcripts in the 5′ region is poorly understood, but is known to occur. miR-762 may be able to bind and downregulate NETO1 transcript levels. To assess this, non-diseased astrocytes were transfected with 400 nM miR-762 mimic, miR-762 inhibitor, or scrambled miR. […] If NETO1 regulation is involved in FTLD-MND glutamate excitotoxicity, then targeting miR-762 regulation of the transcript could represent a possible therapeutic angle.

Compound: CC(/C=C/C(=O)NO)=C\[C@@H](C)C(=O)c1ccc(N(C)C)cc1 [TSA, trichostatin A]
- increase of miR-762 levels (miR-762): 65 fold

Compound: miR-762: miR-762 mimic transfected at 400 nM; miRNA sequence SEQ ID NO: 5 (Table 1) (CGAGCCGGGGCCGGGGUCGGGG; listed as RNA, chemistry not given here; listed as Homo sapiens)
- NETO1 mRNA level (NETO1 mRNA): reproducible and significant downregulation
